Consider 6 compounds from US20250177481A1, “SCO-spondin-derived polypeptides for enhancing synaptic transmission” (AXOLTIS PHARMA, priority 2021, published 2025).

“And” between values parts separate entries of the source, which are not always exact repeats. Identical values can stand only once.

Test [1] deals with T1, GluN2A subunit of NMDAR (isolated evoked NMDAR currents in CA1 hippocampal neurons) (Mus musculus, UniProt P35436).
T1 construct: Sagittal hippocampal brain slices were obtained using standard brain slicing methods; from tissue; host or cells: acute hippocampal slices of C57Bl6/J mice, CA1 pyramidal neurons
T1 sequence (P35436 23-1464, other chains not shown): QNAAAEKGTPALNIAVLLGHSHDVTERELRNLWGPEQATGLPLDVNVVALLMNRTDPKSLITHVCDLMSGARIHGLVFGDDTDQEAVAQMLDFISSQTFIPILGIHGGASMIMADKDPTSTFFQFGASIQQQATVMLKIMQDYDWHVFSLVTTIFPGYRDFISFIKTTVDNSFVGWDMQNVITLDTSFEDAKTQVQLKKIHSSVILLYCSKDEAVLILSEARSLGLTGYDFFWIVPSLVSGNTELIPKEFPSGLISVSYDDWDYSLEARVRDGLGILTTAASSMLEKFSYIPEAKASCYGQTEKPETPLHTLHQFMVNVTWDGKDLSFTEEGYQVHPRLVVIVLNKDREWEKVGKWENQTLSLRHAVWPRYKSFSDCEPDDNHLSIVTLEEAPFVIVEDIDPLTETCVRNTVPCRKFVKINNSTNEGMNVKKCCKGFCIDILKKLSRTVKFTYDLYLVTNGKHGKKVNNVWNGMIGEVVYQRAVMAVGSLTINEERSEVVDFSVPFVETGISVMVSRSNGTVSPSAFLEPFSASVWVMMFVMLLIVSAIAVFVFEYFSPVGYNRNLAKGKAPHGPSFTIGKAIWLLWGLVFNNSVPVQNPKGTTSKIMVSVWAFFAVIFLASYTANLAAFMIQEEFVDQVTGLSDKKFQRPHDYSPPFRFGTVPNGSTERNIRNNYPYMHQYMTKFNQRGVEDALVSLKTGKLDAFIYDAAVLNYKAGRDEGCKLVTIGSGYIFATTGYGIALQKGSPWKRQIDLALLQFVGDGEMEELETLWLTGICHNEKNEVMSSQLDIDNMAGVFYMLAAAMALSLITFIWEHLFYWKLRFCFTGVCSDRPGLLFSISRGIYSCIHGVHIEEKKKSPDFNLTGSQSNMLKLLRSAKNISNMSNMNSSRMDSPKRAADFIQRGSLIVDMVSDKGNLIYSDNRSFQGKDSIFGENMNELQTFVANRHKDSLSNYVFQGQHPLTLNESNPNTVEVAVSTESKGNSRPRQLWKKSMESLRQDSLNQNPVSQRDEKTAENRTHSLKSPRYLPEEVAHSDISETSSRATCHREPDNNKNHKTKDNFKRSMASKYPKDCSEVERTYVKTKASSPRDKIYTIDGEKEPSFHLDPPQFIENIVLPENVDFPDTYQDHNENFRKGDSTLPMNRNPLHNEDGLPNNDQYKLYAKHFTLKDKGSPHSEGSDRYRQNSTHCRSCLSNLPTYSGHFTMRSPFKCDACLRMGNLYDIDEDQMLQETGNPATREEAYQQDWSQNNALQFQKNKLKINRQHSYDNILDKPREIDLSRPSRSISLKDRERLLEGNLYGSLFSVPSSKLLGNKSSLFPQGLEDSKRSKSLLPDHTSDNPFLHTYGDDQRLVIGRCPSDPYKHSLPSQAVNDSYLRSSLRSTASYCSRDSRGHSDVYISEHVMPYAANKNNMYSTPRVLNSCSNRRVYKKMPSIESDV
The test can be described thus: patch-clamp phase 1: NMDAR EPSCs with GluN2B subunits blocked by Ifenprodil. The format is cell-based, C57Bl6/J mice. The settings on record: Ifenprodil 3 μM alone; control = 100; mean of 10 cells. The text has this: (§1) Selective antagonists of GluN2A and GluN2B subunits were also used.
(§2) Twelve (C57Bl6/J) male mice 4-5 weeks-old were obtained from Charles River, France and housed in an animal facility. Animal care was compliant with national and local Ethics committee recommendations. Sagittal hippocampal brain slices were obtained using standard brain slicing methods (approximately 6 slices per mouse) (Knobloch et al. 2007). Mice were anesthetized with isoflurane and then decapitated. […]
(§3) The signal was amplified with an Axopatch 200B amplifier (Molecular Devices, Union City, CA), digitized by a Digidata 1550 interface (Molecular Devices). Recordings were acquired using Clampex 10 (Molecular Devices) and analyzed with Clampfit (Molecular Devices). […]
(§4) A total of 12 mice was dedicated to the study. A total of 23 neurons were recorded (10 per group (phases 1 and 2) and 3 in a control phase (phase 0) as follow. In each recording session, 10 EPSCs were induced in response to Schaffer collateral stimulations. Measurements of the amplitudes (average of 10 EPCS) were assessed. Phase 0 represented a validation phase aiming at confirming that GluN2A and GluN2B were the predominant NR2 subunits involved in the EPSCs evoked by Schaffer collateral stimulation. We expected the residual current at the end of phase 0 to be minimal.
A general note: In patch-clamp work, channel activity is measured electrically.

For test [2], the system named is NMDA EPSCs in hippocampal CA1 pyramidal neurons. As to the kind of experiment: patch-clamp phase 0: sequential application of NVP-AAM077 and Ifenprodil on NMDA EPSCs. The settings on record: 3 cells, data not shown. The format is cell-based, C57Bl6/J mice. As for the experimental part: Twelve (C57Bl6/J) male mice 4-5 weeks-old were obtained from Charles River, France and housed in an animal facility. Animal care was compliant with national and local Ethics committee recommendations. Sagittal hippocampal brain slices were obtained using standard brain slicing methods (approximately 6 slices per mouse) (Knobloch et al. 2007). Mice were anesthetized with isoflurane and then decapitated. […] Acute slices (350 μm thick) were prepared using a vibratome (VT 1000S; Leica Microsystems, Bannockburn, IL). Sections were incubated in standard aCSF at room temperature for at least 1 h before recordings. […] Recordings were acquired using Clampex 10 (Molecular Devices) and analyzed with Clampfit (Molecular Devices). […] A total of 23 neurons were recorded (10 per group (phases 1 and 2) and 3 in a control phase (phase 0) as follow. In each recording session, 10 EPSCs were induced in response to Schaffer collateral stimulations. Measurements of the amplitudes (average of 10 EPCS) were assessed. Phase 0 represented a validation phase aiming at confirming that GluN2A and GluN2B were the predominant NR2 subunits involved in the EPSCs evoked by Schaffer collateral stimulation. We expected the residual current at the end of phase 0 to be minimal.

Test [3] addresses T2, GluN2B subunit of NMDAR (isolated evoked NMDAR currents in CA1 hippocampal neurons) (Mus musculus, UniProt Q01097).
T2 construct: Sagittal hippocampal brain slices were obtained using standard brain slicing methods; from tissue; host or cells: acute hippocampal slices of C57Bl6/J mice, CA1 pyramidal neurons
As to the kind of experiment: patch-clamp phase 2: NMDAR EPSCs with GluN2A subunits blocked by NVP-AAM077. The format is cell-based, C57Bl6/J mice. The settings on record: NVP-AAM077 0.4 μM alone; control = 100; mean of 10 cells.
Source text: as §1, §2, §3, §4

The test system of test [4] is subchronic PCP-induced cognitive deficits in mice. As to the kind of experiment: T-maze continuous alternation task in subchronic PCP mice. The format is in vivo, Swiss CD-1 mice. The settings on record: n=10. The text has this: Phenycyclidine (PCP) is an antagonist of NMDA receptor, its administration in healthy humans produces schizophrenia-like symptoms, therefore PCP is often used to mimic schizophrenia in rodents. […] In addition, brain samples were collected shorlty after the T-Maze test to measure the levels of cerebral biomarkers involved in synaptic plasticity.
Sixty (60) male Swiss CD-1 mice were purchased from Janvier Labs (Le Genest-Saint-Isle, France) one week before the start of the study for acclimation. Mice were group-housed (6-8 mice per Eurostandard type Ill cage) and maintained in a room with controlled temperature (21-22° C.) under a reversed 12 h/12 h light-dark cycle (lights on: 5:[…]; lights off: 05:30 am) with food and water available ad libitum. The weight of mice ranged from 25.9 and 36.4 g. […]
Nicotine used as a positive control was administered at a dose of 0.4 mg/kg intraperitoneally 30 minutes prior to the T-maze trial
After administration of compounds at different timepoints all animals were tested for continuous alternation task in the T-Maze. The T-maze apparatus was made of gray Plexiglas with a main stem (55-cm long×10-cm wide×20-cm high) and two arms (30-cm long×10-cm wide×20-cm high) positioned at a 90-degree angle relative to the main stem. A start box (15-cm long×10-cm wide) was separated from the main stem by a guillotine door. Horizontal doors were also provided to close specific arms during the force choice alternation task. The experimental protocol consisted in one single session that started with 1 “forced-choice” trial, followed by 14 “free-choice” trials (Gerlai, 1998). In the first “forced-choice” trial, the mouse was confined 5 s in the start arm and then released while either the left or right goal arm was blocked by closing the sliding door. Then, it walked through the maze, eventually entered the open goal arm, and then returned to the start position. Immediately after the mouse came back to the start position, the left or right goal door was opened (i.e. the two goal doors were opened), and the mouse could choose freely between the left and right goal arms (first “free choice trial”). The mouse was considered as entered in the arm when it placed its four paws in the arm. The opposite goal door was then closed until the animal returned to the start arm. Then, a second “free choice trial” began by the opening of the closed goal door (i.e. the two goal doors were opened), leaving the choice to the mouse to enter either into the right or the left arm. The session was considered finished as soon as 14 free-choice trials had been performed in less than 10 min, and the mouse was removed from the maze. The time needed to reach these 14 “free-choices” was recorded.
The percent of spontaneous alternations was calculated as number of spontaneous alternations divided by the number of free-choice trials, an index of spatial short-term working memory. The apparatus was cleaned between each animal using alcohol (70%). Urine and feces were removed from the maze. During the trials, animal handling and the visibility of the operator were minimized as much as possible. Animals were tested in a random and blind manner.

Test [5] concerns scopolamine-induced spatial short-term working memory deficits in mice. As to the kind of experiment: Y-maze spontaneous alternation in the scopolamine mouse model of amnesia. The test is classed as in vivo, Swiss mice. The settings on record: for spontaneous alternance in Y-maze: n=6; for effect on scopolamine-induced spatial short-term working memory impairments (Y-maze): data not shown. The protocol: Male Swiss mice, weighing 30-35 g, from JANVIER (Saint Berthevin, France), were housed in groups with access to food and water ad libitum, except during behavioral experiments. They were kept in a temperature and humidity-controlled animal facility on a 12 h/12 h light/dark cycle (lights off at 07:[…]). Mice were numbered by marking their tail with permanent markers. All animal procedures were conducted in strict adherence to the European Union directive of Sep. 22, 2010 (2010/63/UE). In each cage (n=6 per cage), treatment regimen was the same. Animals were tested in a random and blind manner.
Donepezil (DPZ) used as positive control was administered per os at a dose of 1 mg/kg once 1 h before the YM test.
Scopolamine was administered at a dose of 0.5 mg/kg by subcutaneous injection 30 minutes before the YM session.
After administration of compounds at different timepoints all animals were tested for spontaneous alternation performance in the YM, an index of spatial working memory. The YM was designed according to Itoh and collaborators (1993) and Hiramatsu and Inoue (1999) and is made of grey polyvinylchloride. Each arm is 40-cm long, 13-cm high, 3-cm wide at the bottom, 10-cm wide at the top, and converging at an equal angle. Each mouse was placed at the end of one arm and allowed to move freely through the maze during an 8-min session. The series of arm entries, including possible returns into the same arm, were checked visually. An alternation was defined as entries into all three arms on consecutive occasions. The number of maximum alternations is therefore the total number of arm entries minus two and the percentage of alternation was calculated as (actual alternations/maximum alternations)×100. Parameters included the percentage of alternation, called memory index, and total number of arm entries, called exploration index (Maurice et al., 1996, 1988; Meunier et al., 2006; Villard et al., 2009, 2011).
Animals showing an extreme behavior (alternation percentage <20% or >90% or number of arm entries <10) would have been discarded from the calculation. No animal was discarded accordingly.

T2 sequence (Q01097 27-1482, other chains not shown): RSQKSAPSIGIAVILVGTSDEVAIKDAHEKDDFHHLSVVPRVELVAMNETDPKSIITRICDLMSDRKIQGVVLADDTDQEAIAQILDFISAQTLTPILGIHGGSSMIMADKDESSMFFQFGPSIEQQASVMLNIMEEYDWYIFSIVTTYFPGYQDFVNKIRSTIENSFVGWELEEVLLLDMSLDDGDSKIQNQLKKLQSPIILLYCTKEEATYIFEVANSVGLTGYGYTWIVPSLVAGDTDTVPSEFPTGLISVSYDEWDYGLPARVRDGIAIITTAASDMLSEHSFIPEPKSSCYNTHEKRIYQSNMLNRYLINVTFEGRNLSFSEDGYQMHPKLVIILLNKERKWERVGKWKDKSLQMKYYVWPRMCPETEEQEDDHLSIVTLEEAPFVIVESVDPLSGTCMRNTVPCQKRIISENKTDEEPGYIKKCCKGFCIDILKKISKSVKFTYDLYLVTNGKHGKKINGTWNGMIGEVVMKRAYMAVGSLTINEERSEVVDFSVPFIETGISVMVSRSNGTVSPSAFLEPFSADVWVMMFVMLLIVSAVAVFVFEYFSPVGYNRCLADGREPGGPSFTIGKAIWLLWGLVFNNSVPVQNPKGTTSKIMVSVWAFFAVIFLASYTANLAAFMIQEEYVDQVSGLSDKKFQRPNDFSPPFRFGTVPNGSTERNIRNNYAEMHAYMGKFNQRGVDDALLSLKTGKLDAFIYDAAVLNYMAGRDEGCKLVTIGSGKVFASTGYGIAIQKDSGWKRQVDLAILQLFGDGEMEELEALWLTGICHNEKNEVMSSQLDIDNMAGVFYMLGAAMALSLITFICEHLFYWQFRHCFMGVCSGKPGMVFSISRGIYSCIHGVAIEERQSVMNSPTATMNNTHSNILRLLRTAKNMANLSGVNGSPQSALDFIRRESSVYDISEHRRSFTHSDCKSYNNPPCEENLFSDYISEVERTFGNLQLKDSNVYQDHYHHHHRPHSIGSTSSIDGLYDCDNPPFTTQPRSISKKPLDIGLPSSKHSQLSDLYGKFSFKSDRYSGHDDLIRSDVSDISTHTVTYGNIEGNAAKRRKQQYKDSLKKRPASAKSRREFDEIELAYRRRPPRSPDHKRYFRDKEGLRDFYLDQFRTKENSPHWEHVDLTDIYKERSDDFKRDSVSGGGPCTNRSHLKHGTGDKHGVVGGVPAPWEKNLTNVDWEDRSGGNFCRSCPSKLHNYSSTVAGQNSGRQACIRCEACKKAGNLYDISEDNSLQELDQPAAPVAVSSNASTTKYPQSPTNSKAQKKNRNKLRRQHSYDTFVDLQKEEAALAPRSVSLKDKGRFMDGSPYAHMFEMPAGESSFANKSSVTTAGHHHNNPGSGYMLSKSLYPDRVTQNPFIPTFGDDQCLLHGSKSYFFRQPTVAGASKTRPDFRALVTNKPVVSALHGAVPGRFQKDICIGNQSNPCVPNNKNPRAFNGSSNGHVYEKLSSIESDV

Consider `CC(C(O)c1ccc(O)cc1)N1CCC(Cc2ccccc2)CC1` (stereo not shown) [Ifenprodil], for which the “Normalized amplitude of evoked isolated NMDA excitatory postsynaptic currents” value in test [1] is 78.74 % of control. Besides, in test [2] (NVP-AAM077 0.4 μM + Ifenprodil 3 μM), the “NMDA EPSCs amplitude” value is given as “significantly decreased”.
`C[C@H](NC(c1cccc2[nH]c(=O)c(=O)[nH]c12)P(=O)(O)O)c1ccc(Br)cc1` (stereo partly shown) [NVP-AAM077]: in test [3], the “Normalized amplitude of evoked isolated NMDA excitatory postsynaptic currents” value is listed as 56.35 % of control. The “NMDA EPSCs amplitude” value in test [2] (NVP-AAM077 0.4 μM) was “significantly decreased”.
Take `CN1CCCC1c1cccnc1` (stereo not shown) [Nicotine, reference compound]: the “Spontaneous alternations in T-maze” value in test [4] (PCP + 0.4 mg/kg i.p. 30 min before trial (D14), PCP alone 30.71, control 66.43, 0.4 mg/kg) was 62% and 62.14%.
Turning to `c1ccc(C2(N3CCCCC3)CCCCC2)cc1` [PCP, phencyclidine, reference compound], the “Spontaneous alternations in T-maze” value in test [4] (PCP 0.2 mg/kg s.c. twice daily D1-D11, vehicle-treated, saline control 66.43) was 31% and 30.71%.
For `CN1[C@@H]2C[C@@H](OC(=O)[C@H](CO)c3ccccc3)C[C@H]1[C@@H]1O[C@@H]12` [Scopolamine, reference compound], the “spontaneous alternance in Y-maze” value in test [5] (scopolamine 0.5 mg/kg s.c. 30 min before test, alone, control 70, mean) worked out at 45%.
Take “W-S-G-W-S-S-C-S-R-S-C-G [NX210] (WSGWSSCSRSCG; reduced linear form)”: the “effect on scopolamine-induced spatial short-term working memory impairments (Y-maze)” value in test [5] (15 mg/kg i.p. once 48 h before the test) is “maintained but less pronounced”; in test [5] (administered i.p. 2 h or 1 h before the test) it was “No effect”; in test [5] (dose lower than 10 mg/kg i.p.), “No effect”. In addition, in test [5] (i.p. once 24 h before the test, bell-shaped dose-response curve), the “dose with maximum effect on scopolamine-induced memory impairments (Y-maze)” value came out at 15 mg/kg. Besides, the “spontaneous alternance in Y-maze” value is 59% in test [5] (scopolamine + 10 mg/kg i.p. 24 h before test, scopolamine alone 45, control 70, 10 mg/kg) and 69% in test [5] (scopolamine + 15 mg/kg i.p. 24 h before test, scopolamine alone 45, control 70, 15 mg/kg).
